Source: patent US11046716B2, “Beta-lactamase inhibitors” (priority 2015, dated 2021)

Assays:
SHV-5 = molecular target: T1, SHV-5 (Klebsiella pneumoniae, UniProt P0A3M1); assay: β-lactamase enzyme inhibition assay, SHV-5 (cefotaxime substrate); format: biochemical
T1 construct: made in house; host or cells: E. coli BL21(DE3)
Outline: (§1)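 Compounds are mixed with purified, untagged recombinant β-lactamase and held 15 min at 37 °C. Substrate is then added: nitrocefin (100 μM final) for OXA-1, imipenem for KPC-2, cefotaxime for SHV-5. Absorbance is followed immediately, and percent inhibition per concentration gives the IC50.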

KPC-2 = molecular target: T2, KPC-2 (Klebsiella pneumoniae, UniProt Q9F663); assay: β-lactamase enzyme inhibition assay, KPC-2 (imipenem substrate); format: biochemical; conditions: Class A; imipenem substrate, 300 nm; read-out: KPC-2
T2 construct: made in house; host or cells: E. coli BL21(DE3)
Outline: as §1

VIM-2 = molecular target: T3, VIM-2 (Escherichia coli, UniProt Q5U7L7); assay: β-lactamase enzyme inhibition assay, VIM-2 (nitrocefin substrate); format: biochemical; conditions: Class B; nitrocefin substrate, 486 nm; read-out: VIM-2
T3 construct: made in house; host or cells: E. coli BL21(DE3)
Outline: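 Enzyme + inhibitor, 37 °C, 15 min; nitrocefin 100 μM final; A486 read for 10 min. % inhibition vs no-inhibitor wells per concentration; IC50 = concentration halving initial hydrolysis rate.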

AmpC = molecular target: T4, AmpC (Enterobacter cloacae, UniProt P05364); assay: β-lactamase enzyme inhibition assay, p99 AmpC (nitrocefin substrate); format: biochemical
T4 construct: made in house; host or cells: E. coli BL21(DE3)
Outline: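 Compounds are mixed with purified, untagged recombinant β-lactamase and held 15 min at 37 °C. Substrate is then added. Absorbance is followed immediately, and percent inhibition per concentration gives the IC50.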

OXA-48 = OXA-48 (UniProt Q6XEC0); assay: β-lactamase enzyme inhibition assay, Class D oxacillinase; format: biochemical; conditions: read-out: OXA-48
[1] = system: E. coli expressing the Class A Extended Spectrum Beta-Lactamase (ESBL) CTX-M-15; assay: Broth microdilution MIC assay with ceftazidime, E. coli CTX-M-15; format: cell-based; conditions: Fixed CAZ (ceftazidime) 4 μg/mL; E. coli ESBL4 CTX-M-15
Outline: (§2)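 CAMHB; cpd 2-fold serial dilution, 16–0.125 μg/mL final; β-lactam static 4 μg/ml; CLSI inoculation; 16–20 h, 37° C; MIC read by eye.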

[2] = system: E. cloacae expressing the Class C P99; assay: Broth microdilution MIC assay with ceftazidime, E. cloacae P99; format: cell-based; conditions: Fixed CAZ (ceftazidime) 4 μg/mL; E. cl. 144200 p99 AmpC
From the text: To determine the ability of test compounds to potentiate the inhibition of the growth of bacterial strains that produce beta-lactamase enzymes in the presence of a β-lactam antibiotic, classic cell based broth microdilution MIC assays were employed. Six bacteria strains producing beta-lactamase enzymes were used: E. coli expressing the Class A Extended Spectrum Beta-Lactamase (ESBL) CTX-M-15, E. cloacae expressing the Class C P99, K. pneumoniae expressing the Class A carbapenemase KPC-2, P. aeruginosa expressing the Class B carbapenemase VIM-2, K. pneumoniae expressing the class A carbapenemase KPC-2 and the class B carbapenemase VIM-4, and K. pneumoniae producing the Class D carbapenemase OXA-48. The assay was conducted in Cation Adjusted Mueller Hinton Broth (CAMHB, BD #212322, BD Diagnostic Systems, Sparks, Md.). Bacteria strains were grown for 3-5 hours in CAMBH broth. Test compounds (Examples 1-94) were added to a microtiter plate in 2-fold serial dilutions in CAMHB in a final concentration range of 16 μg/mL to 0.125 μg/ml. An overlay of CAMHB containing a Beta-lactam was added to the compounds at a final static concentration of 4 μg/ml. […] In addition to the titration of test compounds the MICs of a panel of control beta-lactams is also tested to ensure the strains are behaving consistently from test to test. Once the test compound and antibiotics are added the plates can be inoculated according to CLSI broth microdilution method. After inoculation the plates are incubated for 16-20 hours at 37° C. then the Minimal Inhibitory Concentration (MIC) of the test compound is determined visually.
Using the methodology described above, examples of the current invention were evaluated for their ability to inhibit the growth of β-lactamase-producing bacteria in the presence of a β-lactam antibiotic.

[3] = system: K. pneumoniae expressing the Class A carbapenemase KPC-2; assay: Broth microdilution MIC assay with meropenem, K. pneumoniae KPC-2; format: cell-based; conditions: Fixed Mero (meropenem) 4 μg/mL; K. p. 156319 KPC-3
Outline: as §2

[4] = system: P. aeruginosa expressing the Class B carbapenemase VIM-2; assay: Broth microdilution MIC assay with meropenem, P. aeruginosa VIM-2; format: cell-based; conditions: Fixed Mero (meropenem) 4 μg/mL; P. aerug. 2775 VIM-2
Outline: as §2

[5] = system: K. pneumoniae expressing the class A carbapenemase KPC-2 and the class B carbapenemase VIM-4; assay: Broth microdilution MIC assay with meropenem, K. pneumoniae KPC-2 and VIM-4; format: cell-based; conditions: Fixed Mero (meropenem) 4 μg/mL; K. p. A-1797 KPC-2 VIM-4
Outline: as §2

[6] = system: K. pneumoniae producing the Class D carbapenemase OXA-48; assay: Broth microdilution MIC assay with meropenem, K. pneumoniae OXA-48; format: cell-based; conditions: Fixed Mero (meropenem) 4 μg/mL; K. p. 11978 OXA-48
Outline: as §2

T1 sequence (P0A3M1 22-286): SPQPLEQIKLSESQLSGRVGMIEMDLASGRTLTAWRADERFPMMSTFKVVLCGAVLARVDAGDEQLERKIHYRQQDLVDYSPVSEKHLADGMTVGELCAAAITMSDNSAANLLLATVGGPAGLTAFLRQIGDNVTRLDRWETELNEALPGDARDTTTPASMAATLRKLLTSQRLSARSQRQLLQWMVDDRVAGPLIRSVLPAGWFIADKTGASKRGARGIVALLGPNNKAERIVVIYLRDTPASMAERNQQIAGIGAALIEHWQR
T2 sequence (Q9F663 25-293, looked up): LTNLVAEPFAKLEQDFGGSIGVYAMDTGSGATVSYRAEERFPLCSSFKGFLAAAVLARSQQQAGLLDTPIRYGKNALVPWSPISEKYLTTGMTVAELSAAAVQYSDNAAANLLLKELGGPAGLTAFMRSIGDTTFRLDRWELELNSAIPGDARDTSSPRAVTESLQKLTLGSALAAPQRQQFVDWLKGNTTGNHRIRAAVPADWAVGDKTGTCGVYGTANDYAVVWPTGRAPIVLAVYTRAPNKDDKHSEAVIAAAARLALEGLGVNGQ
T4 sequence (P05364 21-381): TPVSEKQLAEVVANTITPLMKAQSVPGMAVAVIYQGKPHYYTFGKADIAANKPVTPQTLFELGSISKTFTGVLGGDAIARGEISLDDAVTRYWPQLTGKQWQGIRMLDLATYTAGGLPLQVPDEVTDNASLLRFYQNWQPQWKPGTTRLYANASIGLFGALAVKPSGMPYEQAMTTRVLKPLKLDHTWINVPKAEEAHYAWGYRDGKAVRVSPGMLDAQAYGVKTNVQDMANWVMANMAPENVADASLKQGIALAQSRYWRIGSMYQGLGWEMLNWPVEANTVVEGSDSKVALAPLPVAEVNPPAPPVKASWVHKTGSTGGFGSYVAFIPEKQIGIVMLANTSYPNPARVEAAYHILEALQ

| Compound | IC50 (SHV-5) [nM] | IC50 (KPC-2) [nM] | IC50 (VIM-2) [nM] | IC50 (AmpC) [nM] | IC50 (OXA-48) [nM] | MIC (μg/mL) of Exemplary Compounds in presence of fixed β-lactams: E. coli ESBL4 CTX-M-15 [1] | MIC (μg/mL) of Exemplary Compounds in presence of fixed β-lactams: E. cl. 144200 p99 AmpC [2] | MIC (μg/mL) of Exemplary Compounds in presence of fixed β-lactams: K. p. 156319 KPC-3 [3] | MIC (μg/mL) of Exemplary Compounds in presence of fixed β-lactams: P. aerug. 2775 VIM-2 [4] | MIC (μg/mL) of Exemplary Compounds in presence of fixed β-lactams: K. p. A-1797 KPC-2 VIM-4 [5] | MIC (μg/mL) of Exemplary Compounds in presence of fixed β-lactams: K. p. 11978 OXA-48 [6] |
| --- | --- | --- | --- | --- | --- | --- | --- | --- | --- | --- | --- |
| O=C(Cn1cc(-c2cccnc2)nn1)N[C@H]1Cc2cccc(C(=O)O)c2OB1O [Example 12, (R)-2-hydroxy-3-(2-(4-(pyridin-3-yl)-1H-1,2,3-triazol-1-yl)acetamido)-3,4-dihydro-2H-benzo[e][1,2]oxaborinine-8-carboxylic acid] | < 100 | < 100 | 1000 to 10000 | < 100 | 100 to 1000 | C (C represents an MIC of <1 μg/mL) | C (C represents an MIC of <1 μg/mL) | B (B represents an MIC between 1 and 16 μg/mL inclusive) | B (B represents an MIC between 1 and 16 μg/mL inclusive) | A (A represents an MIC>16 μg/mL) | B (B represents an MIC between 1 and 16 μg/mL inclusive) |
| NCc1cnnn1CC(=O)N[C@H]1Cc2cccc(C(=O)O)c2OB1O [Example 13, (R)-3-(2-(5-(aminomethyl)-1H-1,2,3-triazol-1-yl)acetamido)-2-hydroxy-3,4-dihydro-2H-benzo[e][1,2]oxaborinine-8-carboxylic acid] | 100 to 1000 | < 100 | 100 to 1000 | < 100 | 100 to 1000 | B (B represents an MIC between 1 and 16 μg/mL inclusive) | C (C represents an MIC of <1 μg/mL) | B (B represents an MIC between 1 and 16 μg/mL inclusive) | B (B represents an MIC between 1 and 16 μg/mL inclusive) | B (B represents an MIC between 1 and 16 μg/mL inclusive) | B (B represents an MIC between 1 and 16 μg/mL inclusive) |
| CNCc1nnn(CC(=O)N[C@H]2Cc3cccc(C(=O)O)c3OB2O)c1CO [Example 14, (R)-2-hydroxy-3-(2-(5-(hydroxymethyl)-4-((methylamino)methyl)-1H-1,2,3-triazol-1-yl)acetamido)-3,4-dihydro-2H-benzo[e][1,2]oxaborinine-8-carboxylic acid] | 100 to 1000 | 100 to 1000 | 100 to 1000 | < 100 | 100 to 1000 | B (B represents an MIC between 1 and 16 μg/mL inclusive) | C (C represents an MIC of <1 μg/mL) | B (B represents an MIC between 1 and 16 μg/mL inclusive) | B (B represents an MIC between 1 and 16 μg/mL inclusive) | B (B represents an MIC between 1 and 16 μg/mL inclusive) | B (B represents an MIC between 1 and 16 μg/mL inclusive) |
| CNCc1c(CO)nnn1CC(=O)N[C@H]1Cc2cccc(C(=O)O)c2OB1O [Example 15, (R)-2-hydroxy-3-(2-(4-(hydroxymethyl)-5-((methylamino)methyl)-1H-1,2,3-triazol-1-yl)acetamido)-3,4-dihydro-2H-benzo[e][1,2]oxaborinine-8-carboxylic acid] | 100 to 1000 | 100 to 1000 | < 100 | < 100 | 100 to 1000 | C (C represents an MIC of <1 μg/mL) | C (C represents an MIC of <1 μg/mL) | B (B represents an MIC between 1 and 16 μg/mL inclusive) | C (C represents an MIC of <1 μg/mL) | B (B represents an MIC between 1 and 16 μg/mL inclusive) | B (B represents an MIC between 1 and 16 μg/mL inclusive) |
| O=C(Cn1nnc(C(=O)O)c1C(=O)O)N[C@H]1Cc2cccc(C(=O)O)c2OB1O [Example 16, (R)-1-(2-((8-carboxy-2-hydroxy-3,4-dihydro-2H-benzo[e][1,2]oxaborinin-3-yl)amino)-2-oxoethyl)-1H-1,2,3-triazole-4,5-dicarboxylic acid] | < 100 | < 100 | 1000 to 10000 | < 100 | < 100 | B (B represents an MIC between 1 and 16 μg/mL inclusive) | C (C represents an MIC of <1 μg/mL) | B (B represents an MIC between 1 and 16 μg/mL inclusive) | B (B represents an MIC between 1 and 16 μg/mL inclusive) | B (B represents an MIC between 1 and 16 μg/mL inclusive) | B (B represents an MIC between 1 and 16 μg/mL inclusive) |
| NCc1nc(CC(=O)N[C@H]2Cc3cccc(C(=O)O)c3OB2O)cs1 [Example 19, (R)-3-(2-(2-(aminomethyl)thiazol-4-yl)acetamido)-2-hydroxy-3,4-dihydro-2H-benzo[e][1,2]oxaborinine-8-carboxylic acid] | < 100 | < 100 | 100 to 1000 | < 100 | < 100 | C (C represents an MIC of <1 μg/mL) | C (C represents an MIC of <1 μg/mL) | B (B represents an MIC between 1 and 16 μg/mL inclusive) | C (C represents an MIC of <1 μg/mL) | B (B represents an MIC between 1 and 16 μg/mL inclusive) | B (B represents an MIC between 1 and 16 μg/mL inclusive) |
